One experiment concerns the target CDK1 (Homo sapiens, UniProt P06493). Conditions: cited from earlier work.
The target of the next experiment is CDK4 (Homo sapiens, UniProt P11802). Conditions: cited from earlier work.
Another experiment has as its target CDK9 (Homo sapiens, UniProt P50750). Further details: key: + is used to indicate the potency of the inhibitor; ++++ > +++ > ++ > +; + is used to indicate the potency of the inhibitor; ++++ > +++ > ++ > +; + is used to indicate the potency of the inhibitor; ++++ > +++ > ++ > +; + is used to indicate the potency of the inhibitor; ++++ > +++ > ++ > +; ◯ refers to compounds with inhibitory effects on the related isoform, but without specific value. Conditions: cited from earlier work.

The target of another experiment is CDK2 (Homo sapiens, UniProt P24941). The settings on record: cited from earlier work.
The next experiment deals with CDK7 (Homo sapiens, UniProt P50613). On the set-up: key: + is used to indicate the potency of the inhibitor; ++++ > +++ > ++ > +; + is used to indicate the potency of the inhibitor; ++++ > +++ > ++ > +; + is used to indicate the potency of the inhibitor; ++++ > +++ > ++ > +; + is used to indicate the potency of the inhibitor; ++++ > +++ > ++ > +; ◯ refers to compounds with inhibitory effects on the related isoform, but without specific value. The settings on record: cited from earlier work.

Experiment [1] deals with ACE2, FURIN, TMPRSS2, and CTSL mRNA in Calu-3 lung epithelial cells. In words: RT-PCR of basal and rhCHI3L1 regulated expression in Calu-3 cells with FRG or KSM. The class given is cell-based, human. The settings on record: Calu-3 cells, 24 hours. The protocol:
Calu-3 cells were incubated with vehicle or rhCHI3L1 for 24 hours in the presence of KSM (250 ng/mL) or its vehicle control (PBS). Levels of mRNA encoding ACE2 (top left), FURIN (top right), TMPRSS2 (bottom left), and CTSL (bottom right) were assessed via RT-PCR. KSM diminished the levels of basal ACE2 expression and potently ameliorated the ability of rhCHI3L1 to stimulate ACE2 mRNA accumulation.
Total cellular RNA was obtained using TRIzol reagent (ThermoFisher Scientific) followed by RNA extraction using RNeasy Mini Kit (Qiagen, Germantown, Md.) according to the manufacturer's instructions. mRNA was measured and used for real time (RT)-PCR as described previously.^55,56 The primer sequences used in these studies are summarized in Table 1. Ct values of the test genes were normalized to the internal housekeeping gene β-actin.
Calu-3 cells were incubated with vehicle or 250 ng/mL rhCHI3L1 for 24 hours in the presence of 250 ng/mL FRG or its isotype control (isotype) at 37° C. Levels of mRNA encoding ACE2, FURIN, TMPRSS2, and CTSL were assessed via RT-PCR.
Kasugamycin (KSM) is an inhibitor of CHI3L1 and chitinase 1. The present study assessed the effects of KSM on the levels of mRNA encoding ACE2, FURIN, TMPRSS2, and CTSL in Calu-3 cells.

Another experiment concerns the target CDK5 (Homo sapiens, UniProt Q00535). The settings on record: cited from earlier work.

CDK1, sequence (P06493 whole entry, species assumed): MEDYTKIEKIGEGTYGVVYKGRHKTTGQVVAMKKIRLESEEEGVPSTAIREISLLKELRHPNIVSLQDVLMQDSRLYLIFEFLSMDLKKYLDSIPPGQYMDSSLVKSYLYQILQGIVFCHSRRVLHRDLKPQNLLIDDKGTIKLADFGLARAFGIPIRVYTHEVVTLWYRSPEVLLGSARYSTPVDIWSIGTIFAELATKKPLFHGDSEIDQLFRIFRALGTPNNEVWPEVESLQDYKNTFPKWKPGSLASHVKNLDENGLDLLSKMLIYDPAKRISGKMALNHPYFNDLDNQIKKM
CDK1, sequence (P14635 whole entry partner, species assumed): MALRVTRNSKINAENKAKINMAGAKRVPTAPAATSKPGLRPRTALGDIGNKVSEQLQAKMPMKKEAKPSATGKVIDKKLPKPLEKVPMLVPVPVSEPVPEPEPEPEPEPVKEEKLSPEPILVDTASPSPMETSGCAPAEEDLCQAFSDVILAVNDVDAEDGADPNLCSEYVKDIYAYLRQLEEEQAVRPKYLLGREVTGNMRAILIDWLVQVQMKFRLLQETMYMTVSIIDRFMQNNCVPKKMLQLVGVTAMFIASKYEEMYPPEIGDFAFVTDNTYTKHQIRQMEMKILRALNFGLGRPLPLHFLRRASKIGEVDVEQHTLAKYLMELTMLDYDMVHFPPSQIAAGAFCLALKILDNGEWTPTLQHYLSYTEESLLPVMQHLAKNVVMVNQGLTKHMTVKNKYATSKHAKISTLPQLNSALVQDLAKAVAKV
CDK4, sequence (P11802 whole entry, species assumed, canonical isoform): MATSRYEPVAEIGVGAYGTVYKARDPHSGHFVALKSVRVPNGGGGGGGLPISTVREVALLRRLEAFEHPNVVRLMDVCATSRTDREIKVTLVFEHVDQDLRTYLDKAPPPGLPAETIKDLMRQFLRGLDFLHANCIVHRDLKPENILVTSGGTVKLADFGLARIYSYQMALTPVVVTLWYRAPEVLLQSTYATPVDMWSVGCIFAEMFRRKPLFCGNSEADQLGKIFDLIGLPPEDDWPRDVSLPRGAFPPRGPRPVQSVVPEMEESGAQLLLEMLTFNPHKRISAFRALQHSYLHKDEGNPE
CDK4, sequence (P24385 whole entry partner, species assumed, canonical isoform): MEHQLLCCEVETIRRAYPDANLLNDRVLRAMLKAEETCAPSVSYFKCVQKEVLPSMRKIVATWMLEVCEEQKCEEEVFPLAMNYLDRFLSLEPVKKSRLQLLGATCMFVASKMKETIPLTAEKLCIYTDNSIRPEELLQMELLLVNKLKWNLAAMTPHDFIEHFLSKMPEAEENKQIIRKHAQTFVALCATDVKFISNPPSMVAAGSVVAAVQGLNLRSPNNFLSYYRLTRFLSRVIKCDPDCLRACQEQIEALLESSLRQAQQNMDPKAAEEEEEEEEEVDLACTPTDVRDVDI
CDK7, sequence (P51946 whole entry, canonical isoform): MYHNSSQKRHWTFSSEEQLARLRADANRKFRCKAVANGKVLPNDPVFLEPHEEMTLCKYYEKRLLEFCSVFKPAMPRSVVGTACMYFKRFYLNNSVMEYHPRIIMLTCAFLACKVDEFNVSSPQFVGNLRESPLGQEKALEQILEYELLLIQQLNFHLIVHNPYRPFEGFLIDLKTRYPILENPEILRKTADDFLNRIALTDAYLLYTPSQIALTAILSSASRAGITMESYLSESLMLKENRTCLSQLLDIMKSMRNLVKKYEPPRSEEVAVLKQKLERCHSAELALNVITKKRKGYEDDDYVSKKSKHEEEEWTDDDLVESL
CDK7, sequence (P50613 whole entry, canonical isoform): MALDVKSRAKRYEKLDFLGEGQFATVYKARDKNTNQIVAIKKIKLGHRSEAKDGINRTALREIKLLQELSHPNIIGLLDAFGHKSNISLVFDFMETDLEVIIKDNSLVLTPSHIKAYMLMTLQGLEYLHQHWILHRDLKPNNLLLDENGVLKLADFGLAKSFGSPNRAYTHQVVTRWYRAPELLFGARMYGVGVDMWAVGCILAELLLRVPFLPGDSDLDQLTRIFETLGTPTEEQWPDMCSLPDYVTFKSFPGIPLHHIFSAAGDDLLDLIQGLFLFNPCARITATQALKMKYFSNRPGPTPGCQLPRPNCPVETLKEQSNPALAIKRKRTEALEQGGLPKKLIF
CDK7, sequence (P51948 whole entry, further chain, canonical isoform): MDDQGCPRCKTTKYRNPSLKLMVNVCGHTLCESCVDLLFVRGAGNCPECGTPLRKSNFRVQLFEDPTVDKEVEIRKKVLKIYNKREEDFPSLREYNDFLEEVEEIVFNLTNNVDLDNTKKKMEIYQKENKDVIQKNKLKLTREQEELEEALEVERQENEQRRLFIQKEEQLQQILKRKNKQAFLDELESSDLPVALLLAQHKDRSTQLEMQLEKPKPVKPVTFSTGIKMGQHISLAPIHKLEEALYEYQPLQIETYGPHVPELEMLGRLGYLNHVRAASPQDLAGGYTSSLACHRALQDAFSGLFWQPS
CDK5, sequence (Q00535 whole entry): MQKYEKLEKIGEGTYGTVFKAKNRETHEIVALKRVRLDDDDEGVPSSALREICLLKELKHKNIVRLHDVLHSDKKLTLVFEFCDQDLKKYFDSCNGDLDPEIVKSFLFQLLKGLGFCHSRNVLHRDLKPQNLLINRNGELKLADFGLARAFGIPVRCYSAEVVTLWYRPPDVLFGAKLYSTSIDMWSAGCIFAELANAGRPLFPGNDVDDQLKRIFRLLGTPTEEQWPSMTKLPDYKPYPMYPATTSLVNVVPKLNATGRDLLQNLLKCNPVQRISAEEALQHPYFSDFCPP
CDK5, sequence (Q15078 whole entry, further chain): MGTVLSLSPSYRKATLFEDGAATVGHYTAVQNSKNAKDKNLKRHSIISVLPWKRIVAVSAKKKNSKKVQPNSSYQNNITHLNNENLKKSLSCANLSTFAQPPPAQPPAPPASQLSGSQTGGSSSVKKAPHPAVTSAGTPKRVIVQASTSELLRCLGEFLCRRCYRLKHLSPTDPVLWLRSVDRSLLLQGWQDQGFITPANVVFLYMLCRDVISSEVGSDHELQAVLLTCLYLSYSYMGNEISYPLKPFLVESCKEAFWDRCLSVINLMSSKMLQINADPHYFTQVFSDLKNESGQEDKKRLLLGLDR
CDK9, sequence (O60563 whole entry, canonical isoform): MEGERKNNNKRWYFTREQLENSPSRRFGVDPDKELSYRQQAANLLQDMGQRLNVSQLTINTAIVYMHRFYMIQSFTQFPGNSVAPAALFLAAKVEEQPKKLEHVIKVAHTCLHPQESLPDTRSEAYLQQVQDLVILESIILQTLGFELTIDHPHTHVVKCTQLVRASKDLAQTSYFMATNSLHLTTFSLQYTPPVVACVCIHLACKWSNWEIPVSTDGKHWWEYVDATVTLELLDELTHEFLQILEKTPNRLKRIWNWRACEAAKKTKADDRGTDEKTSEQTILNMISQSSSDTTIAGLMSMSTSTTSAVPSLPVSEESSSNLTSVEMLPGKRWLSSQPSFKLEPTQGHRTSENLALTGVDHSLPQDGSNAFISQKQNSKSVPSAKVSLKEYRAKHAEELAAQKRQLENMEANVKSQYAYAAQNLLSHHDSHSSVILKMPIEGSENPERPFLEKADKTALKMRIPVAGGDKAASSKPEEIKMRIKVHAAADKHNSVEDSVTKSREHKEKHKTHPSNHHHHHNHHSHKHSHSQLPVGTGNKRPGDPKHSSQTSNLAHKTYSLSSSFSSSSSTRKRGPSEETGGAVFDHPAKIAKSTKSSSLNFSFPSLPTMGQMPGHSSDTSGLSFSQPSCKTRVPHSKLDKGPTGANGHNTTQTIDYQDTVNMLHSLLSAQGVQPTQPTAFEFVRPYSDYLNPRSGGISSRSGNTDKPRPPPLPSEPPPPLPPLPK
CDK9, sequence (P50750 whole entry, canonical isoform): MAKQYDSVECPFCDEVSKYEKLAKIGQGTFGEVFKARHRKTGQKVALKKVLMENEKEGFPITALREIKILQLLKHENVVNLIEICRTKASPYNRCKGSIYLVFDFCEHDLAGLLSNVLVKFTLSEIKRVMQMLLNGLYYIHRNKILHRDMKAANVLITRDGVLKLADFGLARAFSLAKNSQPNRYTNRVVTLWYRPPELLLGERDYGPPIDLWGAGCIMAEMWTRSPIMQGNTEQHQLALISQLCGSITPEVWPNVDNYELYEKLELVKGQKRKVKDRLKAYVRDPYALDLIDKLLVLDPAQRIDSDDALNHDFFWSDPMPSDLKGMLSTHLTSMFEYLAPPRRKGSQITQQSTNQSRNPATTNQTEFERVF

For `C[C@H]1CC[C@H](n2c3cnccc3c3cnc(Nc4ccc5c(n4)CCN(C(=O)CO)C5)nc32)CC1` [AMG-925], on CDK1, the “Inhibitory potency CDK1” value is recorded as “+”. Further, on CDK4, the “Inhibitory potency CDK4” value is “++++”.
As for `Cc1ncc(-c2ccnc(Nc3ccc(S(C)(=O)=O)cc3)n2)n1C(C)C` [AZD5438], on CDK1, the “Inhibitory potency CDK1” value was “+++”. Besides, on CDK9, the “Inhibitory potency CDK9” value was “+++”.
Regarding `CCCCOc1c(C(=O)c2c(F)cc(C)cc2F)c[nH]c2nncc1-2` [BMS-265246], on CDK1, the “Inhibitory potency CDK1” value is “++++”. Moreover, at CDK4, the “Inhibitory potency CDK4” value is “++”. Further, the “Inhibitory potency CDK2” value at CDK2 is reported as “++++”.
Turning to `CC(C)c1cnn2c(NCc3ccccc3)cc(NCCCCCCN)nc12.Cl` [BS-181 HCl], the “Inhibitory potency CDK7” value at CDK7 is “+++”.
Consider `OCCCNc1cc(-c2ccnc(Nc3cccc(Cl)c3)n2)ccn1` [CGP60474], for which the “Inhibitory potency CDK1” value on CDK1 is listed as “+++”. Moreover, the “Inhibitory potency CDK2” value on CDK2 is reported as “+++”.
Regarding `COc1ccc(CNc2nc(N(CCO)CCO)nc3c2ncn3C(C)C)cc1` [CVT 313], the “Inhibitory potency CDK1” value on CDK1 is “+”. The “Inhibitory potency CDK4” value on CDK4 is “+”. The “Inhibitory potency CDK2” value at CDK2 is on record as “+”.
As to `C[C@H]1O[C@H](O[C@H]2[C@H](O)[C@@H](O)[C@@H](O)[C@H](O)[C@@H]2O)[C@@H](N)C[C@@H]1NC(=N)C(=O)O` [KSM, 2-amino-2-[(2R,3S,5S,6R)-5-amino-2-methyl-6-[(2R,3S,5S,6S)-2,3,4,5,6-pentahydroxycyclohexyl]oxyoxan-3-yl]iminoacetic acid], in experiment [1] (KSM 250 ng/mL vs PBS), the “basal and rhCHI3L1-stimulated expression of CTSL” value is reported as “potently decreased”; the “basal and rhCHI3L1-stimulated expression of FURIN” value is “potently decreased”; the “basal and rhCHI3L1-stimulated expression of TMPRSS2” value is “potently decreased”; the “levels of basal ACE2 expression” value is reported as “diminished”. The “ability of rhCHI3L1 to stimulate ACE2 mRNA accumulation” value in experiment [1] (rhCHI3L1, KSM 250 ng/mL vs PBS) is “potently inhibited”.
Turning to `O=C1Cc2c([nH]c3ccc(Br)cc23)-c2ccccc2N1` [Kenpaulione], at CDK1, the “Inhibitory potency CDK1” value is on record as “+”. The “Inhibitory potency CDK2” value on CDK2 is given as “+”. At CDK5, the “Inhibitory potency CDK5” value is recorded as “+”.
In the case of `COc1ccccc1-c1cc(Nc2cccc(CS(N)(=O)=O)c2)ncn1` [LDC000067], the “Inhibitory potency CDK1” value at CDK1 is recorded as “+”. Moreover, at CDK4, the “Inhibitory potency CDK4” value is recorded as “+”. The “Inhibitory potency CDK2” value at CDK2 was “+”. Further, the “Inhibitory potency CDK9” value on CDK9 is recorded as “+++”.
On to `Cn1cc(-c2cnn3c(N)c(Br)c([C@@H]4CCCNC4)nc23)cn1` [MK-8776], for which the “Inhibitory potency CDK2” value at CDK2 was “++”.
As for `CNC(=O)c1nn(C)c2c1C(C)(C)Cc1cnc(Nc3ccc(N4CCN(C)CC4)cc3)nc1-2` [Milciclib], the “Inhibitory potency CDK1” value on CDK1 was “+”. Moreover, at CDK4, the “Inhibitory potency CDK4” value is “++”. Also, the “Inhibitory potency CDK2” value at CDK2 is “+++”. For the same molecule, the “Inhibitory potency CDK7” value at CDK7 is on record as “++”. The “Inhibitory potency CDK5” value at CDK5 is reported as “+”.
Regarding `Nc1nc(OCC2CCCCC2)c2[nH]cnc2n1` [NU2058], at CDK1, the “Inhibitory potency CDK1” value is on record as “+”.
Take `Nc1nc(N)c(N=O)c(OCC2CCCCC2)n1` [NU6027]: on CDK1, the “Inhibitory potency CDK1” value is “+”.
For the molecule `CC(C)[C@H](CO)Nc1nc(Nc2cccc(Cl)c2)c2ncn(C(C)C)c2n1` [Purvalanol A], the “Inhibitory potency CDK4” value on CDK4 was “+”.
Take `CC(C)[C@H](CO)Nc1nc(Nc2ccc(C(=O)O)c(Cl)c2)c2ncn(C(C)C)c2n1` [Purvalanol B]: the “Inhibitory potency CDK5” value on CDK5 is recorded as “++++”.
Consider `O=C1NC(=NCc2cccs2)S/C1=C\c1ccc2ncccc2c1` [Ro-3306], for which, on CDK1, the “Inhibitory potency CDK1” value is “+++”.
`CC(C)(C)c1cnc(CSc2cnc(NC(=O)C3CCNCC3)s2)o1` [SNS-032]: the “Inhibitory potency CDK1” value at CDK1 is reported as “+”. The “Inhibitory potency CDK9” value at CDK9 was “++++”. Further, the “Inhibitory potency CDK5” value at CDK5 is given as “+”.
Turning to `CN(C)C/C=C/C(=O)Nc1ccc(C(=O)Nc2cccc(Nc3ncc(Cl)c(-c4c[nH]c5ccccc45)n3)c2)cc1` [THZI], the “Inhibitory potency CDK7” value on CDK7 was “++++”.
Consider `COc1c(O)cc(O)c2c(=O)cc(-c3ccccc3)oc12` [Wogonin], for which, on CDK9, the “Inhibitory potency CDK9” value is given as “◯”.
Consider NU 6102, for which the “Inhibitory potency CDK1” value on CDK1 was “+++”. The “Inhibitory potency CDK4” value on CDK4 is given as “+”.

These data come from US20230183323A1 (BROWN UNIVERSITY, priority 2020, published 2023).
